Measured values reported in patent US10160986B2, “Chemoenzymatic synthesis of heparin and heparan sulfate analogs” (The Regents of the University of California, priority 2011, dated 2018).
Each block holds one molecule with its values, some of them ahead of it.

What was measured:
[1] = system: necrotizing enterocolitis in neonatal rats; test: Necrotizing enterocolitis neonatal rat model; format: in vivo, Sprague-Dawley rats; conditions: formula containing 300 μg/mL glycan; for mean ileum pathology score (0: healthy; 4: complete destruction): oral gavage twice daily, 96 hours, mean±standard deviation
Experimental: Rat studies. The efficacy of the synthesized glycans against necrotizing enterocolitis was tested in the same neonatal rat model as previously described for DSLNT. Briefly, pregnant time-dated Sprague-Dawley rats were induced at term and immediately randomized into one of the different study groups. Animals in the dam-fed group (DF) remained with the dam. All other animals were separated from the dam, housed in a temperature- and humidity-controlled incubator and orally gavaged with a special rodent formula (0.2 mL) twice daily. All animals, dam-fed and gavaged, were exposed to 10 min of hypoxia (5% O2, 95% N2) thrice daily in a modular chamber. All animals were sacrificed 96 hours post-partum, and 0.5 cm of the terminal ileum prepared for H&E staining per standard protocols and scored blindly based on morphological changes that included epithelial sloughing, villus edema, infiltration of neutrophils, apoptosis of villus enterocytes, crypt hyperplasia and misaligned nuclei in the epithelium. If at least one pathology sign was observed, a score of 0.5-1.5 was assigned depending on severity. […] The maximum score of 4 was given in case of complete obliteration of the epithelium with or without intestinal perforation. Pathology scores were plotted for each animal and the mean calculated per group. Differences between the groups were calculated by 1 way ANOVA with Kruskal-Wallis test and Dunn's Multiple Comparison test. Significance was defined as a P value of less than 0.05.

[2] = biological target: NahK_ATCC55813 (Bifidobacterium longum subsp. longum, UniProt E8MF12, D7V/R348H)
Experimental: (§1) Kinetics by CE assays. Reactions were carried out in duplicate at 37° C. for 10 min in a total volume of 20 μL in Tris-HCl buffer (200 mM, pH 7.5) containing MgCl2 (1 mM), ATP, GlcNAc or GalNAc, and NahK (0.25 μM when GlcNAc and ATP were used as substrates, 0.5 μM when GalNAc and ATP were used as substrates). Apparent kinetic parameters were obtained by varying the ATP concentration from 0.1-5.0 mM (0.1 mM, 0.2 mM, 0.4 mM, 1 mM, 2 mM, and 5 mM) at a fixed concentration of GlcNAc or GalNAc (1 mM), or varying the concentration of GlcNAc or GalNAc (0.1 mM, 0.2 mM, 0.4 mM, 1 mM, 2 mM, and 5 mM) at a fixed concentration of ATP (1 mM) and fitting the data to the Michaelis-Menten equation using Grafit 5.0.
(§2) Capillary electrophoresis (CE) assays. Based on the detection of ADP and ATP in the reaction mixture by a UV detector, a capillary electrophoresis-based method was developed to directly measure the formation of ADP and N-acetylhexosamine-1-phosphate from ATP and N-acetylhexosamine for characterizing the activities of NahKs.

[3] = biological target: NahK_JCM1217 (Bifidobacterium longum subsp. longum, UniProt E8MF12); conditions: ATP and GlcNAc as substrates; HPIC with pulsed amperometric detector; cited from earlier work
[4] = biological target: T1, AtGlcAK (Arabidopsis thaliana, UniProt Q93ZC9, I297M); test: AtGlcAK substrate specificity CE assay; format: biochemical
T1 construct: made in house; host or cells: E. coli BL21 (DE3)
Experimental: Substrate specificity assays. […] The reactions were quenched and assayed with the same method as those for pH profile. All reactions were performed in duplicates.

[5] = biological target: T1, AtGlcAK; test: AtGlcAK substrate specificity by TLC and LC-MS; format: biochemical; conditions: sugar 10 mM, ATP 20 mM, AtGlcAK 22 μg, 37° C., 15 hr
Experimental: Substrates specificity assays by thin-layer chromatography (TLC). […] For visualizing compounds on TLC plate, p-anisaldehyde sugar stain was used.
LC-MS assays for AtGlcAK reactions. The AtGlcAK reaction mixtures above were also analyzed by LC-MS. 2 μL of sample was diluted 100 fold and 8 μL was injected into a Waters spherisorb ODS-2 column (5 μm particles, 250 mm length, 4.6 mm I.D.). The sample was eluted with 30% acetonitrile in H2O with 0.1% formic acid and detected by ESI-MS in negative mode.

[6] = biological target: T2, human FGF-1 (Homo sapiens, UniProt P05230); test: Inhibition of FGF-1 binding to immobilized heparin-biotin; conditions: compound 1 mM; FGF 1 μM
T2 construct: purchased PeproTech Inc (Rocky Hill, N.J.)
From the text: (§3) Materials. Recombinant human fibroblast growth factors FGF-1, FGF-2, FGF-4, and anti-human FGF-1, FGF-2, FGF-4 were purchased from PeproTech Inc (Rocky Hill, N.J.). Heparin-biotin was from Sigma (St. Louis, Mo.). Low molecular weight heparin (LMWH) was bought from AMS Biotechnology (Lake Forest, Calif.). Alexa Fluor® 488 goat anti-rabbit IgG (H+L) was from Invitrogen (Carlsbad, Calif.). 384-Well NeutrAvidin-coated plates for the sialidase assays were from Fisher Biotech.
(§4) Methods. All assays were carried out in duplicate in 384-well NeutrAvidin coated plates. Heparin-biotin (20 μL, 2 μM) was added to each well and the plate was incubated at 4° C. for overnight. The plate was washed with 3 rounds of 1×PBS buffer containing 0.05% Tween-20 and blocked with 1% BSA (50 μL for each well) and incubated at r.t. for 30 min. After the plate was washed three times with 1×PBS buffer containing 0.05% Tween-20, each set of duplicate wells were added 20 μL of human FGF-1, FGF-2, or FGF-4 (1 μM) with or without premixing with LMWH (˜22 nM or 0.1 μM), monosaccharide, or oligosaccharides (100 μM or 1 mM) and the plate was incubate at r.t. for 1 hr. After washing three times with 1×PBS buffer containing 0.05% Tween-20, anti-human FGF-1, FGF-2 or FGF-4 (20 μL) was added and the plate was incubated at r.t. for 1 hr. After the plate was washed three times with 1×PBS buffer containing 0.05% Tween-20, Alexa Fluor® 488 goat anti-rabbit IgG (H+L) (20 μL) was added and the plate was incubated at r.t. for 1 hr. After washed three times with 1×PBS buffer containing 0.05% Tween-20 and once with water, the fluorescent signals of wells in the plate were measured using a microtiter plate reader.

[7] = biological target: T3, human FGF-2 (Homo sapiens, UniProt P09038); test: Inhibition of FGF-2 binding to immobilized heparin-biotin; conditions: compound 1 mM; FGF 1 μM
T3 construct: purchased PeproTech Inc (Rocky Hill, N.J.)
From the text: as §3, §4

[8] = biological target: T4, human FGF-4 (Homo sapiens, UniProt P08620); test: Inhibition of FGF-4 binding to immobilized heparin-biotin; conditions: compound 1 mM; FGF 1 μM
T4 construct: purchased PeproTech Inc (Rocky Hill, N.J.)
T4 sequence (P08620 31-206): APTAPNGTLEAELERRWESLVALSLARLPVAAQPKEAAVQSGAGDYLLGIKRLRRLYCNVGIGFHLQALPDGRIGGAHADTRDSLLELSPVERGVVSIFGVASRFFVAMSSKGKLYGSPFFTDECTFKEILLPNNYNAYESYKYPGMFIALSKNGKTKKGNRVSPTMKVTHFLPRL
From the text: as §3
as §4, with “After washing three times with 1×PBS buffer containing 0.05% Tween-20, anti-human FGF-1, FGF-2 or FGF-4 (20 μL) was added and the plate was incubated at r.t. for 1 hr. After the plate was washed three times with 1×PBS buffer containing 0.05% Tween-20, Alexa Fluor® 488 goat anti-rabbit IgG (H+L) (20 μL) was added and the plate was incubated at r.t. for 1 hr.” left out

[9] = system: necrotizing enterocolitis in neonatal rats; conditions: previously reported; cited from earlier work
[10] = biological target: NahK_ATCC15697 (Bifidobacterium longum, UniProt B7GN78); test: Kinetics by CE assays, NahK_ATCC15697; conditions: in the presence of ATP
Experimental: as §1, §2

[11] = Low enzyme Conc. (412 ng in 20 μL, 15 min, 37° C.)

Molecule: CC(=O)N[C@H]1[C@H](O[C@H]2[C@@H](O)[C@@H](CO)O[C@@H](O[C@H]3[C@H](O)[C@@H](O)C(O)O[C@@H]3CO)[C@@H]2O)O[C@H](CO)[C@@H](O[C@@H]2O[C@H](CO)[C@H](O)[C@H](O[C@]3(C(=O)O)C[C@H](O)[C@@H](NC(C)=O)[C@H]([C@H](O)[C@H](O)CO)O3)[C@H]2O)[C@@H]1O (some centres unmarked) [3′″-sLNnT, Neu5Acα2-3Galβ1-4GlcNAcβ1-3Galβ1-4Glc]
NEC preventing effect in neonatal rats [1]: lacking of NEC preventing effect
mean ileum pathology score (0: healthy; 4: complete destruction) [1]: 2.05±0.55

Molecule: Nc1ncnc2c1ncn2[C@@H]1O[C@H](COP(=O)(O)OP(=O)(O)OP(=O)(O)O)[C@@H](O)[C@H]1O [ATP, Adenosine-5′-triphosphate]
kcat ([2]; substrates ATP and GlcNAc): 1.3 ± 0.1 s⁻¹
Km ([2]; substrates ATP and GlcNAc, one varied, other fixed at 1 mM, 37° C., 10 min): 110 ± 30 µM
Km [3]: 172 µM

Molecule: O=C[C@H](O)[C@@H](O)[C@H](O)[C@H](O)C(=O)O [Compound F24-1, glucuronic acid]
Percentage conversion of ATP [4, 11]: 61.5%
substrate for AtGlcAK (formation of sugar-1-phosphate) [5]: acceptable substrates
inhibition at 1000 µM [6]: 65%
inhibition at 1000 µM [7]: 68%
inhibition at 1000 µM [8]: 54%

Molecule: CC(=O)N[C@H]1[C@H](O[C@H]2[C@@H](O)[C@@H](CO)O[C@@H](O[C@@H]([C@H](O)[C@@H](O)C=O)[C@H](O)CO)[C@@H]2O)O[C@H](CO[C@]2(C(=O)O)C[C@H](O)[C@@H](NC(C)=O)[C@H]([C@H](O)[C@H](O)CO)O2)[C@@H](O)[C@@H]1O[C@@H]1O[C@H](CO)[C@H](O)[C@H](O[C@]2(C(=O)O)C[C@H](O)[C@@H](NC(C)=O)[C@H]([C@H](O)[C@H](O)CO)O2)[C@H]1O [DSLNT, disialyllacto-N-tetraose]
NEC preventing effect in neonatal rat model [9]: effective for preventing necrotizing enterocolitis

Molecule: O=C[C@H](O)[C@@H](O)[C@@H](O)[C@H](O)C(=O)O [GalA, galacturonic acid]
Percentage conversion of ATP ([4]; High enzyme Conc. (2.1 μg in 20 μL, 60 min, 37° C.)): 15.3%
Percentage conversion of ATP [4, 11]: 6.2%
substrate for AtGlcAK (formation of sugar-1-phosphate) [5]: acceptable substrates

Molecule: CC(=O)N[C@H]1C(O)O[C@H](CO)[C@@H](O)[C@@H]1O (some centres unmarked) [GlcNAc, N-acetylglucosamine]
efficiency as substrate relative to GalNAc ([2]; in the presence of ATP): 2.6 fold
efficiency as substrate relative to GalNAc [10]: 3.1 fold
Km [3]: 118 µM

Molecule: O=C[C@@H](O)[C@H](O)[C@@H](O)[C@H](O)C(=O)O [IdoA, iduronic acid]
substrate for AtGlcAK (formation of sugar-1-phosphate) [5]: acceptable substrates

FGF-1 (% inhibition) [6]: 76%
Molecule: GlcAβ1-4GlcNH2α1-4GlcAβ2AA [Compound F24-11]

FGF-1 (% inhibition) [6]: 62%
Molecule: GlcNAc6N3α1-4GlcAβ1-4GlcNH2α1-4GlcAβ2AA [Compound F24-13]

FGF-2 (% inhibition) [7]: 68%
FGF-4 (% inhibition) [8]: 43%
Molecule: GlcNAc6NH2α1-4GlcAβ1-4GlcNSα1-4GlcAβ2AA [Compound F24-15]

FGF-1 (% inhibition) [6]: 58%
FGF-2 (% inhibition) [7]: 55%
Molecule: GlcNAc6NSα1-4GlcAβ1-4GlcNSα1-4GlcAβ2AA [Compound F24-16]

Molecule: Neu5Acα2-6Galβ1-4GlcNAcβ1-3(Neu5Acα2-6)Galβ1-4Glc [DSLNnT]
NEC preventing effect in neonatal rats [1]: protects neonatal rats from necrotizing enterocolitis
mean ileum pathology score (0: healthy; 4: complete destruction) [1]: 1.29±0.54
